Laboratory results as given in PMC9021566, “Design, Synthesis, and Antitumor Activity Study of All-Hydrocarbon-Stapled B1-Leu Peptides” (Frontiers in Chemistry, 2022).
Like-named read-outs stand apart in the source and are kept apart here.

Columns and labels:
[1] = On-resin ring-closing olefin metathesis (all-hydrocarbon stapling, S5/S5 i,i+4 or R8/S5 i,i+7), first-generation Grubbs catalyst (3 equiv); then Fmoc removal, TFA cleavage, RP-HPLC; conditions: the molecule shown is the open-chain precursor, 25.0 °C, 4.0 h
[2] = the molecule shown is the open-chain precursor, resin
[3] = 33-membered ring, 1,2-dichloroethane (dry)

In the case of `C=CCCCCCC[C@@](C)(NC(=O)[C@@H](NC(=O)OCC1c2ccccc2-c2ccccc21)C(C)C)C(=O)N[C@@H](CCCNC(=N)NS(=O)(=O)c1c(C)c(C)c2c(c1C)CC(C)(C)O2)C(=O)N[C@@H](Cc1ccccc1)C(=O)N[C@@H](CCCCNC(=O)OC(C)(C)C)C(=O)N[C@@H](CCCCNC(=O)OC(C)(C)C)C(=O)N[C@@H](Cc1ccccc1)C(=O)N[C@@H](Cc1ccccc1)C(=O)N[C@@](C)(CCCC=C)C(=O)N[C@@H](CCCCNC(=O)OC(C)(C)C)C(=O)N[C@@H](CC(C)C)C(=O)N[C@@H](CCCCNC(=O)OC(C)(C)C)C(=O)N[C@@H](CCCCNC(=O)OC(C)(C)C)C(=O)N[C@@H](CC(C)C)C(=O)N[C@H](C(N)=O)C(C)C`, the ring closure, overall yield [1, 3] is reported as 62%.

`C=CCCCCCC[C@@](C)(NC(=O)[C@H](CCCCNC(=O)OC(C)(C)C)NC(=O)[C@H](Cc1ccccc1)NC(=O)[C@H](CCCNC(=N)NS(=O)(=O)c1c(C)c(C)c2c(c1C)CC(C)(C)O2)NC(=O)[C@H](CCCCNC(=O)OC(C)(C)C)NC(=O)[C@@H](NC(=O)OCC1c2ccccc2-c2ccccc21)C(C)C)C(=O)N[C@@H](Cc1ccccc1)C(=O)N[C@@H](Cc1ccccc1)C(=O)N[C@@H](CCCNC(=N)NS(=O)(=O)c1c(C)c(C)c2c(c1C)CC(C)(C)O2)C(=O)N[C@@H](CCCCNC(=O)OC(C)(C)C)C(=O)N[C@@H](CC(C)C)C(=O)N[C@@H](CCCCNC(=O)OC(C)(C)C)C(=O)N[C@@](C)(CCCC=C)C(=O)N[C@@H](CC(C)C)C(=O)N[C@H](C(N)=O)C(C)C` showed a ring closure, overall yield [1, 3] of 62%.

In the case of `C=CCCCCCC[C@@](C)(NC(=O)[C@H](Cc1ccccc1)NC(=O)[C@H](CCCNC(=N)NS(=O)(=O)c1c(C)c(C)c2c(c1C)CC(C)(C)O2)NC(=O)[C@H](CCCCNC(=O)OC(C)(C)C)NC(=O)[C@@H](NC(=O)OCC1c2ccccc2-c2ccccc21)C(C)C)C(=O)N[C@@H](CCCCNC(=O)OC(C)(C)C)C(=O)N[C@@H](Cc1ccccc1)C(=O)N[C@@H](Cc1ccccc1)C(=O)N[C@@H](CCCNC(=N)NS(=O)(=O)c1c(C)c(C)c2c(c1C)CC(C)(C)O2)C(=O)N[C@@H](CCCCNC(=O)OC(C)(C)C)C(=O)N[C@@H](CC(C)C)C(=O)N[C@@](C)(CCCC=C)C(=O)N[C@@H](CCCCNC(=O)OC(C)(C)C)C(=O)N[C@@H](CC(C)C)C(=O)N[C@H](C(N)=O)C(C)C`, the ring closure, overall yield ([2]; 33-membered ring) is reported as 65%.

With `C=CCCC[C@](C)(NC(=O)[C@H](CCCCNC(=O)OC(C)(C)C)NC(=O)[C@H](Cc1ccccc1)NC(=O)[C@H](CCCNC(=N)NS(=O)(=O)c1c(C)c(C)c2c(c1C)CC(C)(C)O2)NC(=O)[C@](C)(CCCC=C)NC(=O)[C@@H](NC(=O)OCC1c2ccccc2-c2ccccc21)C(C)C)C(=O)N[C@@H](Cc1ccccc1)C(=O)N[C@@H](Cc1ccccc1)C(=O)N[C@@H](CCCNC(=N)NS(=O)(=O)c1c(C)c(C)c2c(c1C)CC(C)(C)O2)C(=O)N[C@@H](CCCCNC(=O)OC(C)(C)C)C(=O)N[C@@H](CC(C)C)C(=O)N[C@@H](CCCCNC(=O)OC(C)(C)C)C(=O)N[C@@H](CCCCNC(=O)OC(C)(C)C)C(=O)N[C@@H](CC(C)C)C(=O)N[C@H](C(N)=O)C(C)C` the ring closure, overall yield ([2]; 21-membered ring) was 65%.

For `C=CCCC[C@](C)(NC(=O)[C@H](Cc1ccccc1)NC(=O)[C@H](Cc1ccccc1)NC(=O)[C@H](CCCCNC(=O)OC(C)(C)C)NC(=O)[C@H](CCCCNC(=O)OC(C)(C)C)NC(=O)[C@H](Cc1ccccc1)NC(=O)[C@H](CCCNC(=N)NS(=O)(=O)c1c(C)c(C)c2c(c1C)CC(C)(C)O2)NC(=O)[C@H](CCCCNC(=O)OC(C)(C)C)NC(=O)[C@@H](NC(=O)OCC1c2ccccc2-c2ccccc21)C(C)C)C(=O)N[C@@H](CCCCNC(=O)OC(C)(C)C)C(=O)N[C@@H](CC(C)C)C(=O)N[C@@H](CCCCNC(=O)OC(C)(C)C)C(=O)N[C@@](C)(CCCC=C)C(=O)N[C@@H](CC(C)C)C(=O)N[C@H](C(N)=O)C(C)C`, the ring closure, overall yield ([1]; 21-membered ring, 1,2-dichloroethane (dry)) was 68%.
